US10220548B2, “Humidity activated formulation for volatile compounds” (AgroFresh, Inc., priority 2013, dated 2019)

Assays:
[1] = Quantification of amount of active in coating by GC; format: physicochemical; conditions: PVOH/active/SDS coating; for % Incorporated active (compared to theoretical maximum amount): theoretical maximum 25 wt. % of active
Method: The coating is peeled off the PET backer and then placed in a petri-dish in a fume-hood overnight to allow any residual non-encapsulated active to evaporate. The following day, the delaminated coating is precisely weighed into a 20 mL GC vial. 5.0 grams of DI water is added, and the vial immediately sealed. The contents of the vial are gently swirled to dissolve the coating in the water, and at least 10 hours are allowed for the headspace to equilibrate with the aqueous phase. A headspace sample is then removed by syringe for injection into the GC column.

[2] = at 25° C.; known value; cited from earlier work
[3] = Vapor pressure and saturated headspace concentration of pure reference compound; format: physicochemical; conditions: for saturated headspace concentration of reference samples: pure compound 0.5 mL in vial, calculated from known vapor pressures at room temperature
Method: The strips of coating are then placed inside GC headspace vials (20 mL). In some cases a droplet of water (0.10 mL) is added to the bottom of the vial (avoiding contact with the strip) before the vial is sealed, in order to generate an atmosphere of 100% relative humidity (RH).
(§1) Analysis of Release of trans-2-hexenal or guaiacol from Coating into Headspace: A strip of approximately 13.6 cm^2 is cut from the middle of the coated PET sheet. The coating is peeled off the PET backer and then placed in a petri-dish in a fume-hood overnight to allow any residual non-encapsulated active to evaporate. A GC vial, 20 mL, with a screw-on septum-cap is prepared at 95% humidity by adding a mini plastic ultracentrifuge vial with the cap cut off containing approximately 0.20 g of saturated potassium nitrate (KNO3) solution, with a few grains of solid KNO3 added to maintain saturation. After allowing time (at least 2 hours) for the humidity in the vial to equilibrate, the strip of coating is added to the GC vial, and the vial immediately sealed. After allowing the desired amount of time for release of the active from the coating, a headspace sample is removed by syringe for injection into the GC column. The concentration in the Headspace is determined by comparing the GC Peak Area of the sample to the GC Peak Area of the headspace from a vial containing 0.5 mL of pure trans-2-hexenal, or guaiacol.

[4] = Analysis of release of trans-2-hexenal or guaiacol from coating into headspace at 95% RH; format: physicochemical; conditions: PVOH coating strip, room temperature/95% RH
Method: as §1

CCCCCCO [Formulation 1-Hexanol, 1-hexanol]
% Incorporated active (compared to theoretical maximum amount) [1]: 75.0%
vapor pressure [2]: 0.124 kPa
saturated concentration in the headspace of reference vial ([3]; pure compound 0.50 mL in vial, calculated from known vapor pressure at 25° C.): 1224 ppm

CCC/C=C/C=O [Trans-2-hexenal, trans-2-hexenal]
Absolute amount of active incorporated (wt. %) [1]: 18.0% wt. %
% Incorporated active (compared to theoretical maximum amount) [1]: 71.9%
saturated headspace concentration of reference samples [3]: 8685 ppm (V/V)
Concentration of trans-2-hexenal in headspace (ppm) ([4]; 0.17 hours after strip inserted into GC vial): 350.60 ppm
Concentration of trans-2-hexenal in headspace (ppm) ([4]; 0.70 hours): 589.45 ppm
Concentration of trans-2-hexenal in headspace (ppm) ([4]; 1.25 hours): 1266.50 ppm
Concentration of trans-2-hexenal in headspace (ppm) ([4]; 1.78 hours): 2036.63 ppm
Concentration of trans-2-hexenal in headspace (ppm) ([4]; 2.33 hours): 3484.15 ppm
Concentration of trans-2-hexenal in headspace (ppm) ([4]; 2.87 hours): 4541.25 ppm
Concentration of trans-2-hexenal in headspace (ppm) ([4]; 3.42 hours): 6173.40 ppm
Concentration of trans-2-hexenal in headspace (ppm) ([4]; 4.52 hours): 7357.28 ppm
Concentration of trans-2-hexenal in headspace (ppm) ([4]; 17.77 hours): 6742.25 ppm

COc1ccccc1O [Guaiacol, guaiacol]
Absolute amount of active incorporated (wt. %) [1]: 17.2% wt. %
% Incorporated active (compared to theoretical maximum amount) [1]: 68.7%
saturated headspace concentration of reference samples [3]: 145 ppm (V/V)
Concentration of guaiacol in headspace (ppm) ([4]; 0.62 hours after strip inserted into GC vial): 76.17 ppm
Concentration of guaiacol in headspace (ppm) ([4]; 1.2 hours): 81.90 ppm
Concentration of guaiacol in headspace (ppm) ([4]; 1.75 hours): 80.20 ppm
Concentration of guaiacol in headspace (ppm) ([4]; 3.52 hours): 82.55 ppm
Concentration of guaiacol in headspace (ppm) ([4]; 23.75 hours): 89.52 ppm
